Reference: ChEMBL document CHEMBL1201862, “PubChem BioAssay data set” (2004)
Several values for one entry are separate records, joined by “and”; a condition that tells them apart may be missing. Equal entries are not always repeated. Activity calls are given as the source filed them.

Tests used:
[1] = target: T1, Mannose-6-phosphate isomerase (Homo sapiens, UniProt P34949); test: phosphomannose isomerase inhibition – biochemical, fluorescence intensity, confirmation (AID 1535)
T1 sequence (P34949 whole entry): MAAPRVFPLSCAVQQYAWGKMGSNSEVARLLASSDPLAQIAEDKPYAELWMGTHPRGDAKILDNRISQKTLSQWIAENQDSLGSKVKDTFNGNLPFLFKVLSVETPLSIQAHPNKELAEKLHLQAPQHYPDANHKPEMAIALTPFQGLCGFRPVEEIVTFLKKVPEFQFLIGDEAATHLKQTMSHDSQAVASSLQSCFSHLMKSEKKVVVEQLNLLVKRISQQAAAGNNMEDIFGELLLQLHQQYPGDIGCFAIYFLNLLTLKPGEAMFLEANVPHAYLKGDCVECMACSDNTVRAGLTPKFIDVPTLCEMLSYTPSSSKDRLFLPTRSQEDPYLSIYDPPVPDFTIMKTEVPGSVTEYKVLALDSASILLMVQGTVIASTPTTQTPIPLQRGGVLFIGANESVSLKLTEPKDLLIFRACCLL

Phosphomannomutase 2 = Phosphomannomutase 2 (Homo sapiens, UniProt O15305); test: Counter screen SAR assay for PMM2 inhibitors via a fluorescence intensity assay. [Related pubchem assays (depositor defined):AID1545, AID1574]
Chain of Phosphomannomutase 2 (O15305 whole entry): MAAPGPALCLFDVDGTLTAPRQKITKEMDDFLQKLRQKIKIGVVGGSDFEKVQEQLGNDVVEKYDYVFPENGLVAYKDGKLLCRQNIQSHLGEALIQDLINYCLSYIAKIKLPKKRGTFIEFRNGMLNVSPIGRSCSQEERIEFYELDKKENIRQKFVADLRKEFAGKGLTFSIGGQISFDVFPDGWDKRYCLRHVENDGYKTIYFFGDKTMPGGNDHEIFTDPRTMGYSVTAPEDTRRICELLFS

Cytochrome P450 2C19 = Cytochrome P450 2C19 (Homo sapiens, UniProt P33261); test: Cytochrome panel assay with activity outcomes. Panel member name: p450-cyp2c19 Compounds with AC50 equal or less than 10 uM are considered active; type: functional; conditions: read-out: AC50
Chain of Cytochrome P450 2C19 (P33261 whole entry): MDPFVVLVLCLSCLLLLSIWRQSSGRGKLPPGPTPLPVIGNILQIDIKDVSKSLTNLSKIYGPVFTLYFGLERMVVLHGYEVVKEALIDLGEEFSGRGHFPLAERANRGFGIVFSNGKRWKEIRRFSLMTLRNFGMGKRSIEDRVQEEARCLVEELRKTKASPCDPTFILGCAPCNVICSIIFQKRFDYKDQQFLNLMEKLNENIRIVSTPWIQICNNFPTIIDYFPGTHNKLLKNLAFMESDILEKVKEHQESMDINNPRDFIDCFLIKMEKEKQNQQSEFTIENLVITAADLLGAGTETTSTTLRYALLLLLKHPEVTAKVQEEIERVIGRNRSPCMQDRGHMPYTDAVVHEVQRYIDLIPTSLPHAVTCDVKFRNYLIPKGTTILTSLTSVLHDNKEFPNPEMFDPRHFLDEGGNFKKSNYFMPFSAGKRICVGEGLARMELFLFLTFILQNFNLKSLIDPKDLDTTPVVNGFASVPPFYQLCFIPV

[2] = restored growth of temperature-sensitive Burl-1 yeast – whole organism, S. cerevisiae, Burl-1 ts mutant, luminescence, counter-screen for SUMOylation pathway inhibitor project, dose response (AID 463199); type: functional
Cytochrome P450 2D6 [3] = target: T2, Cytochrome P450 2D6 (Homo sapiens, UniProt P10635);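 also: CYP2D6 member of a cytochrome P450 panel assay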
T2 sequence (P10635 whole entry): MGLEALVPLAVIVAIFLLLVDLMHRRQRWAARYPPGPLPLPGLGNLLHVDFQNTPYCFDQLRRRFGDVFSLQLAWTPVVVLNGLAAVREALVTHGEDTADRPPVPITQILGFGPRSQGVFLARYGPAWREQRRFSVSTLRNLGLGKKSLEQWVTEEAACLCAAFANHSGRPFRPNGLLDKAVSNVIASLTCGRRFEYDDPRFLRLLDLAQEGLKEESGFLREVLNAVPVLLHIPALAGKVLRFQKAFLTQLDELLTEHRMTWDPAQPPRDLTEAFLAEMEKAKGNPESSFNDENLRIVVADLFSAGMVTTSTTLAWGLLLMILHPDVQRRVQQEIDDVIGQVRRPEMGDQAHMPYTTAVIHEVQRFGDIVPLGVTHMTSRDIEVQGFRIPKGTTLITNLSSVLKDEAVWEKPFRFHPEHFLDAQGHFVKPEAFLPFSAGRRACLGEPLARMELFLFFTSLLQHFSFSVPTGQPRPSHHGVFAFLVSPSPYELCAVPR

Cytochrome P450 2D6 [4] = target: T2, Cytochrome P450 2D6; remark: listed apart in the source
Cytochrome P450 1A2 = target: T3, Cytochrome P450 1A2 (Homo sapiens, UniProt P05177);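 also: PubChem cytochrome P450 panel assay, CYP1A2 panel member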
T3 sequence (P05177 whole entry): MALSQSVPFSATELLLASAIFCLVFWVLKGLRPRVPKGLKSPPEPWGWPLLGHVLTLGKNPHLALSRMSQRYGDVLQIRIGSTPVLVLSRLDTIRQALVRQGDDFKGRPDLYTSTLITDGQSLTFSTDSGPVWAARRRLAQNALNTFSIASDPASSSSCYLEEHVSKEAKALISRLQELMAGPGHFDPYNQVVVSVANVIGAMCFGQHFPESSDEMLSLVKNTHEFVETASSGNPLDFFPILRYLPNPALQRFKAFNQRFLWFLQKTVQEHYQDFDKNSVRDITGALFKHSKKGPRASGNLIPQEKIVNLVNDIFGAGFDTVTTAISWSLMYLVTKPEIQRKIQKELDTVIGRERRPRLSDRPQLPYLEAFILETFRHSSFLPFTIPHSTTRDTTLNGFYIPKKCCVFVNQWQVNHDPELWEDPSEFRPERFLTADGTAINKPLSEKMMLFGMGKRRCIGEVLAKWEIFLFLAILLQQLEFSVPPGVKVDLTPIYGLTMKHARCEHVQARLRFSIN

Jurkat = test: SAR Analysis of small molecule inhibitors of T-cell specific antigen receptor-induced NF-kB activation in a Jurkat cell line using a luminescence assay - Set 2. [Related pubchem assays (depositor defined):AID435003, AID435012, AID465]; type: functional, cell-based; conditions: Homo sapiens
[5] = HEK-293T viability loss after treatment – luminescence, T-cell screen hits, cytotoxicity control for TCR NF-kB inhibitor project, dose response (AID 489026); type: functional, cell-based;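 also: cells exposed to compound about 14 hours before the viability readout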
[6] = target: T4, Microphthalmia-associated transcription factor (Homo sapiens, UniProt O75030); test: reducers of TRPM1 reporter luminescence, concentration series – cell-based, SK-MEL-5, cherry-picked, set 3, MITF inhibitor project, dose response (AID 493073); type: functional;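 also: SK-MEL-5 melanoma cells with luciferase driven by the MITF target TRPM1 promoter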
T4 sequence (O75030 whole entry): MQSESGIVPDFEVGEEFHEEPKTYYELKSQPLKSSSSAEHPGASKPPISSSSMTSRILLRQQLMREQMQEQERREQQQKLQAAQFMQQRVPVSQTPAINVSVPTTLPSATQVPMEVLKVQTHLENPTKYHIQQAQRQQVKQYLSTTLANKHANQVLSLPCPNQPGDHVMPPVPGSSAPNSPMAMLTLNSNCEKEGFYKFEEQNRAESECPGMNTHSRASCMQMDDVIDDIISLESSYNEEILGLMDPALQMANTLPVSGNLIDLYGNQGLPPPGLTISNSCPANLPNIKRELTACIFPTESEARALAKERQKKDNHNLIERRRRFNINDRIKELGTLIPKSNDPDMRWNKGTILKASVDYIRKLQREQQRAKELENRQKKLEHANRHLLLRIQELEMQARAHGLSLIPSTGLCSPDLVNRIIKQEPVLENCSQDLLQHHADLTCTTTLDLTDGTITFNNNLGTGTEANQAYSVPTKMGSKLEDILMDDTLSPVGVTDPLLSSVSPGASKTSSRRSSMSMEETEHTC

HEK293 [7] = test: HEK293T cell viability loss, resazurin readout – resazurin fluorescence, cytotoxicity control for NF-kB activator project, SAR follow-up (AID 493251); type: functional, cell-based; conditions: Homo sapiens
HEK293 [8] = test: SAR Analysis of small molecule inhibitors of T-cell specific antigen receptor-induced NF-kB activation in a HEK-293T cell line using a luminescence assay - Set 2. [Related pubchem assays (depositor defined):AID435003, AID435012, AID489026]; type: functional, cell-based; conditions: Homo sapiens
Hexokinase HKDC1 = target: T5, Hexokinase HKDC1 (Homo sapiens, UniProt Q2TB90); test: analog inhibition of human HKDC1 activity – biochemical, set 2, SAR follow-up (AID 588355); type: functional
T5 sequence (Q2TB90 whole entry): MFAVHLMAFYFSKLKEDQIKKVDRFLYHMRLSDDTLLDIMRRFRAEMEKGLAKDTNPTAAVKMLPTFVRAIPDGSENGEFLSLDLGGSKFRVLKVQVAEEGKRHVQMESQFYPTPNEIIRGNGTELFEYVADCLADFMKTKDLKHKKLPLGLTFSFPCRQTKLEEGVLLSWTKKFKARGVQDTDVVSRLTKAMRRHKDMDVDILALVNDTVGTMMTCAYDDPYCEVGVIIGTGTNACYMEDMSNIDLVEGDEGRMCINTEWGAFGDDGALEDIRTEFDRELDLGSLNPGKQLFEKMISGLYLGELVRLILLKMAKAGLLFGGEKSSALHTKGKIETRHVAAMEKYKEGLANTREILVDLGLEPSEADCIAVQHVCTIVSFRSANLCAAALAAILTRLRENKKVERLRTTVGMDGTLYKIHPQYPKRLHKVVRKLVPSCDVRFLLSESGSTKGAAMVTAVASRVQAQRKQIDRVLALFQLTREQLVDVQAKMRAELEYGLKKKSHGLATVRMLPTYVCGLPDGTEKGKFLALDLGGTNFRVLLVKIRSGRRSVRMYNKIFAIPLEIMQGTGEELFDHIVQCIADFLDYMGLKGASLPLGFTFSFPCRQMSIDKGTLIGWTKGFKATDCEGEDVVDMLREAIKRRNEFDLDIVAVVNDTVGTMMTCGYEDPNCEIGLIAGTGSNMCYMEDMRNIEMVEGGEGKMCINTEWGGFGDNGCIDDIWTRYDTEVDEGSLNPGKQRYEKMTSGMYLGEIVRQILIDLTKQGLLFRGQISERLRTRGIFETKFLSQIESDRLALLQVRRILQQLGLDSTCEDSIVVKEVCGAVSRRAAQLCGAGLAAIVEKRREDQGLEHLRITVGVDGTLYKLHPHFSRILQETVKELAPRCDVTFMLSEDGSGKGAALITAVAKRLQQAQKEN

Hexokinase-1 = Hexokinase-1 (Homo sapiens, UniProt P19367); test: hexokinase 1 activity inhibitors, potency – biochemical, set 2, resazurin fluorescence coupled readout, selectivity assay for HKDC1 inhibitor project, SAR follow-up (AID 588356); type: functional
Chain of Hexokinase-1 (P19367 whole entry): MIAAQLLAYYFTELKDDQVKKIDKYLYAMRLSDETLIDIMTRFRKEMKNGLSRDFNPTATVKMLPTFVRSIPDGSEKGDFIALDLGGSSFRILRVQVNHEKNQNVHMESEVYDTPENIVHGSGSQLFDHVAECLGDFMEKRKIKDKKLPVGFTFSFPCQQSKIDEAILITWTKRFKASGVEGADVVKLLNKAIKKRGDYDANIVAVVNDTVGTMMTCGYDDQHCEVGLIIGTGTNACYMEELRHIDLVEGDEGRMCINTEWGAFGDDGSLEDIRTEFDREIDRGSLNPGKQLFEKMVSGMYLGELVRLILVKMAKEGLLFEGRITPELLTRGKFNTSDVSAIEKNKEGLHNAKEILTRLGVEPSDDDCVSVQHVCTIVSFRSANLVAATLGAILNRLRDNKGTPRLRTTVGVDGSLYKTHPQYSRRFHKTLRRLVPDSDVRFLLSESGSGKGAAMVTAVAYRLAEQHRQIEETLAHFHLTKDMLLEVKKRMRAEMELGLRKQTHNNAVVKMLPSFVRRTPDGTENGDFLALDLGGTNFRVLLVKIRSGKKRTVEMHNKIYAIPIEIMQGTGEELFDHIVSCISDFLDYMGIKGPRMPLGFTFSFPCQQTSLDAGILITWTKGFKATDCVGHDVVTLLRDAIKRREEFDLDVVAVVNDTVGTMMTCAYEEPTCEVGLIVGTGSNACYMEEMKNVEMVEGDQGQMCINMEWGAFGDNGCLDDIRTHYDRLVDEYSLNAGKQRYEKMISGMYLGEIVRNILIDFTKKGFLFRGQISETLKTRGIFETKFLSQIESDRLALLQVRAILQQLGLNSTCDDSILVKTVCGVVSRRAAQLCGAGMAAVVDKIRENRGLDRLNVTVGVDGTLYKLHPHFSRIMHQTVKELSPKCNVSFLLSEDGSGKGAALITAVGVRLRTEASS

[9] = viability of HCT116 lacking mutant beta-catenin – cell-based, human colon tumor, dose response (AID 1045); type: functional;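 also: HCT116 colon tumor cells with beta catenin knocked out; cells exposed to compound for 60 hours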
[10] = target: T6, Apoptotic protease-activating factor 1 (Homo sapiens, UniProt O14727); test: activation of Apaf-1 mediated apoptosis – fluorescent, uHTS hits, dose response (AID 588554); type: functional
T6 sequence (O14727 whole entry): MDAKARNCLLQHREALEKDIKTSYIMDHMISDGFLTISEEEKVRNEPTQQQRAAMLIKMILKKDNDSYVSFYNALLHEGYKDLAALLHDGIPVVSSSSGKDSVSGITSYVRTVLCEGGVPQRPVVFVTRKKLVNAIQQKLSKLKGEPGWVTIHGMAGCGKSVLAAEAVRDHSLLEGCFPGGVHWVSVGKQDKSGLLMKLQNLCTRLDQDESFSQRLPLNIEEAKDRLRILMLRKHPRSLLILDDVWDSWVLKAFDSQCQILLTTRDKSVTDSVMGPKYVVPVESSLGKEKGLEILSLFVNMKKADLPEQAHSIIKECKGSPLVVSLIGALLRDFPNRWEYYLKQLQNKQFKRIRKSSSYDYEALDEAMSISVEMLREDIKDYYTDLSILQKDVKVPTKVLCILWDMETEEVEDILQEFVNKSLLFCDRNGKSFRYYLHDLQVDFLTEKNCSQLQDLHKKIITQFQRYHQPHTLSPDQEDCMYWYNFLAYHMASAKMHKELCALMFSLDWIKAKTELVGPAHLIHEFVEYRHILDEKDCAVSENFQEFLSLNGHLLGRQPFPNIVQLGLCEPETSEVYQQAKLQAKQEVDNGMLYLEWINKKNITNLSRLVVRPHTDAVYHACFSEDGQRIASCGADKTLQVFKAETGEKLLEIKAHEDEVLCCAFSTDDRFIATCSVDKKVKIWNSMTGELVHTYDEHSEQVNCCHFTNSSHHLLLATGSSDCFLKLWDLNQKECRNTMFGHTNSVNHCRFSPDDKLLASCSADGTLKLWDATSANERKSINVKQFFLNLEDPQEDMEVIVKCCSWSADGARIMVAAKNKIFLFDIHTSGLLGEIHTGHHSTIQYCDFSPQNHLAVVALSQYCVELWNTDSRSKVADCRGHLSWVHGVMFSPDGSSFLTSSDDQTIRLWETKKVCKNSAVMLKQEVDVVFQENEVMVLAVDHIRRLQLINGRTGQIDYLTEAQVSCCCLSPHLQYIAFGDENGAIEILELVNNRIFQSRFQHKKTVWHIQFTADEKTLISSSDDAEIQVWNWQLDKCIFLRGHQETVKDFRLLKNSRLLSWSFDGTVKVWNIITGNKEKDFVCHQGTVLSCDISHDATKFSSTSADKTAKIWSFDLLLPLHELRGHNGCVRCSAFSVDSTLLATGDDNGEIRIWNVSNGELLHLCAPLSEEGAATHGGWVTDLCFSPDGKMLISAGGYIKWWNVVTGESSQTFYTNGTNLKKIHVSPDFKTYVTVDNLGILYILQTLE

[11] = viability of PTEN-deleted HCT116 cells – cell-based, HCT116 PTEN knockout, dose response (AID 1047); type: functional;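 also: HCT116 colon tumor cells with PTEN knocked out; cells exposed to compound for 60 hours before readout; potency for loss of cell viability measured by luminescence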

In the case of OCc1ccccc1/N=c1\ssnc1Cl, the IC50 [1] is reported as 35.8 µM (active) and the IC50 (Phosphomannomutase 2) is reported as > 100 µM (inactive).

For Cc1ccc(S(=O)(=O)N2CCOCC2)cc1NC(=O)COC(=O)CCC(=O)c1cccs1, the AC50 (Cytochrome P450 2C19) was 39.8 µM (inconclusive), the AC50 [2] was 87.5 µM (active) and the AC50 (Cytochrome P450 2D6 [3]) was 31.6 µM (inconclusive).

For Cc1ncc([N+](=O)[O-])n1CC(C)O (stereo not drawn) [SECNIDAZOLE], the AC50 (Cytochrome P450 2D6 [4]) was “inconclusive”.

With Cc1cccc(C)c1N=C1NCCCS1 [XYLAZINE] the AC50 (Cytochrome P450 2D6 [3]) was 39.8 µM (inconclusive) and 10 µM (inconclusive) and the AC50 (Cytochrome P450 1A2) was “inactive”.

For Cc1cc(C)cc(NC(=O)c2ccc([N+](=O)[O-])o2)c1, the IC50 (Jurkat) was 0.85 µM (active), the IC50 [5] was > 80 µM (inactive) and the AC50 [6] was 16.6 µM (active). For the same compound, the IC50 (HEK293 [7]) was 43.4 µM (inactive) and the IC50 (HEK293 [8]) was 21.8 µM (inactive).

In the case of COc1cc2c(cc1OC)-c1cc(NCCN(C)C)nc(=O)n1CC2, the IC50 (Hexokinase HKDC1) is reported as > 80 µM (inactive) and the IC50 (Hexokinase-1) is reported as > 80 µM (inactive).

For CCOc1ccc(C(=O)/C=C/Nc2ccc(S(=O)(=O)N=C(N)N)cc2)cc1, the EC50 [9] was 21.8 µM (active), the EC50 [10] was 6.28 µM (active) and the EC50 [11] was 16.3 µM (active).
